# From patent US20100285959A1, “HERBICIDAL MIXTURES” (priority 2006, published 2010)
# Columns and labels:
# [1] = test system: corn (ZEAMD); test: Test 1 field trial, preemergence; format: in vivo, Zea mays ssp. indentata; design: scale not given here; settings: g a.i./ha: Atrazine 1680, S-Metolachlor 1870
# Source text: (§1) Corn seeds (hybrid ‘Pioneer 34N43’) were planted in mid spring season, 3.8 cm deep in a silt loam soil having 4.6% organic matter and a pH of 6. Plots were 10.7 m long by 1.5 m wide with rows spaced 76 cm apart. Seeds were spaced 18 cm apart within the rows. The field was managed using conventional tillage practices. […] Results are summarized in Table 1 and are the means of the three replicates. […] Colby's Equation (Colby, S. R. “Calculating Synergistic and Antagonistic Responses of Herbicide Combinations,” Weeds, 15(1), pp 20-22 (1967)) calculates the expected additive effect of herbicidal mixtures, and for two active ingredients is of the form:
# (§2) Pa+b=Pa+Pb−(PaPb/100) • wherein Pa+b is the percentage effect of the mixture expected from additive contribution of the individual components, • Pa is the observed percentage effect of the first active ingredient at the same use rate as in the mixture, and • Pb is the observed percentage effect of the second active ingredient at the same use rate as in the mixture.
# [2] = test system: large crabgrass (DIGSA); test: Test 5 field trial, postemergence; format: in vivo, Digitaria sanguinalis; settings: atrazine 1120, glufosinate 470 or glyphosate 1120 g a.i./ha alone
# Source text: (§3) Corn seeds (hybrid ‘Pioneer 38H69’) were planted in mid spring season, 5.1 cm deep in a silty clay loam soil having 3% organic matter and a pH of 6.5. Plots were 9.1 m long by 3.0 m wide with rows spaced 76 cm apart. The field was managed using conventional tillage practices. […] All treatments included a surfactant except glufosinate treatments, both alone and in combination. […] Results are summarized in Table 5 and are the means of the three replicates.
# [3] = test system: Surinam grass (BRADC); test: Test 11 field trial, preemergence; format: in vivo, Brachiaria decumbens; design: scale not given here
# Source text: (§4) Corn seeds (hybrid ‘Pioneer 3041’) were planted in mid spring season, 5 cm deep in a clay soil having 2.6% organic matter and a pH of 5.6. Plots were 8 m long by 1.5 m wide with rows spaced 80 cm apart. Seeds were spaced 15 cm apart within the rows. The field was managed using conventional tillage practices. […] Treatments consisted of Compound 2 or
# (§5) Goosegrass was not evaluated 16 or 91 days after application.
# [4] = test system: jimsonweed (DATST); test: Test 8 field trial, preemergence; format: in vivo, Datura stramonium; settings: g a.i./ha: Cpd 2 100, Atrazine 1680, S-Metolachlor 1870
# Source text: (§6) Corn seeds (hybrid ‘Pioneer 31G96’) were planted in mid spring season, 3.8 cm deep in a clay loam soil having 2% organic matter and a pH of 6.6. Plots were 6.1 m long by 3.0 m wide with rows spaced 76 cm apart. Seeds were spaced 15 cm apart within the rows. The field was managed using conventional tillage practices. […] A few of the weed species could not be evaluated at every timing. […] Results are the means of the three replicates.
# [5] = test system: giant foxtail (SETFA); test: Test 8 field trial, preemergence; format: in vivo, Setaria faberi; settings: g a.i./ha: Cpd 2 100, Atrazine 1680, S-Metolachlor 1870
# Source text: as §6
# [6] = test system: Pennsylvania smartweed (POLPY); test: Test 6 field trial, postemergence; format: in vivo, Polygonum pensylvanicum; settings: 1120 g a.i./ha
# Source text: Corn seeds (hybrid ‘Pioneer 35Y62’) were planted in mid spring season, 3.8 cm deep in a silt loam soil having 4% organic matter and a pH of 5.8. Plots were 10.7 m long by 1.5 m wide with rows spaced 76 cm apart. Seeds were spaced 18 cm apart within the rows. The field was managed using conventional tillage practices. […] All treatments included a surfactant except glufosinate treatments, both alone and in combination. […] Results are summarized in Table 6 and are the means of the three replicates.
# [7] = test system: yellow foxtail (SETLU); test: Test 5 field trial, postemergence; format: in vivo, Setaria glauca; settings: atrazine 1120, glufosinate 470 or glyphosate 1120 g a.i./ha alone
# Source text: as §3
# [8] = test system: common lambsquarters (CHEAL); test: Test 8 field trial, preemergence; format: in vivo, Chenopodium album; settings: g a.i./ha: Cpd 2 100, Atrazine 1680, S-Metolachlor 1870
# Source text: as §6
# [9] = test system: common cocklebur (XANST); test: Test 10 field trial, preemergence; format: in vivo, Xanthium strumarium ssp. strumarium; settings: 28 DAA; g a.i./ha: Cpd 2 100, Atrazine 1680, S-Metolachlor 1870
# Source text: Corn seeds (hybrid ‘Pioneer 33P65 RR’) were planted in mid spring season, 2.5 cm deep in a silt loam soil. Plots were 9.1 m long by 3.0 m wide with rows spaced 76 cm apart. The field was managed using conventional tillage practices. […] Results are the means of the three replicates.
# [10] = test system: field pennycress (THLAR); test: Test 5 field trial, postemergence; format: in vivo, Thlaspi arvense; settings: atrazine 1120, glufosinate 470 or glyphosate 1120 g a.i./ha alone
# Source text: as §3
# [11] = test system: common ragweed (AMBEL); test: Test 8 field trial, preemergence; format: in vivo, Ambrosia artemisiifolia; settings: g a.i./ha: Cpd 2 100, Atrazine 1680, S-Metolachlor 1870
# Source text: as §6
# [12] = test system: redroot pigweed (AMARE); test: Test 1 field trial, preemergence; format: in vivo, Amaranthus retroflexus; settings: g a.i./ha: Atrazine 1680, S-Metolachlor 1870
# Source text: as §1, §2
# [13] = test system: common ragweed (AMBEL); test: Test 5 field trial, postemergence; format: in vivo, Ambrosia artemisiifolia; settings: atrazine 1120, glufosinate 470 or glyphosate 1120 g a.i./ha alone
# Source text: as §3
# [14] = test system: Brazilian crabgrass (DIGHO); test: Test 11 field trial, preemergence; format: in vivo, Digitaria horizontalis; design: scale not given here
# Source text: as §4, §5
# [15] = 16 DAA, atrazine 1500 or metolachlor 2500 g a.i./ha alone
# [16] = 30 DAA, atrazine 1500 or metolachlor 2500 g a.i./ha alone
# [17] = 44 DAA, atrazine 1500 or metolachlor 2500 g a.i./ha alone
# [18] = 62 DAA, atrazine 1500 or metolachlor 2500 g a.i./ha alone
# [19] = 91 DAA, atrazine 1500 or metolachlor 2500 g a.i./ha alone
# [20] = 16 DAA, Cpd 2/Cpd 1 at 62 g a.i./ha, alone or + atrazine 1500 or metolachlor 2500
# [21] = 16 DAA, Cpd 2/Cpd 1 at 125 g a.i./ha, alone or + atrazine 1500 or metolachlor 2500
# [22] = 30 DAA, Cpd 2/Cpd 1 at 62 g a.i./ha, alone or + atrazine 1500 or metolachlor 2500
# [23] = 30 DAA, Cpd 2/Cpd 1 at 125 g a.i./ha, alone or + atrazine 1500 or metolachlor 2500
# [24] = 44 DAA, Cpd 2/Cpd 1 at 62 g a.i./ha, alone or + atrazine 1500 or metolachlor 2500
# [25] = 44 DAA, Cpd 2/Cpd 1 at 125 g a.i./ha, alone or + atrazine 1500 or metolachlor 2500
# [26] = 62 DAA, Cpd 2/Cpd 1 at 62 g a.i./ha, alone or + atrazine 1500 or metolachlor 2500
# [27] = 62 DAA, Cpd 2/Cpd 1 at 125 g a.i./ha, alone or + atrazine 1500 or metolachlor 2500
# [28] = 91 DAA, Cpd 2/Cpd 1 at 62 g a.i./ha, alone or + atrazine 1500 or metolachlor 2500
# [29] = 91 DAA, Cpd 2/Cpd 1 at 125 g a.i./ha, alone or + atrazine 1500 or metolachlor 2500
smiles,measurement,setting,value
"CCNc1nc(Cl)nc(NC(C)C)n1 [Atrazine, atrazine, reference compound]",ZEAMD Obs,[1]; 28 DAA,0
same,ZEAMD Obs,[1]; 56 DAA,0
same,DIGSA Obs,[2]; 16 DAA,0%
same,DIGSA Obs,[2]; 31 DAA,0%
same,BRADC Obs,[3]; [15],40
same,BRADC Obs,[3]; [16],20
same,BRADC Obs,[3]; [17],0
same,BRADC Obs,[3]; [18],0
same,BRADC Obs,[3]; [19],0
same,DATST Obs,[4]; 19 DAA,53%
same,DATST Obs,[4]; 29 DAA,100%
same,DATST Obs,[4]; 56 DAA,100%
same,SETFA Obs,[5]; 19 DAA,60%
same,SETFA Obs,[5]; 29 DAA,88%
same,SETFA Obs,[5]; 56 DAA,67%
same,POLPY Obs,[6]; 14 DAA,73%
same,POLPY Obs,[6]; 28 DAA,83%
same,SETLU Obs,[7]; 16 DAA,0%
same,SETLU Obs,[7]; 31 DAA,0%
same,CHEAL Obs,[8]; 19 DAA,100%
same,CHEAL Obs,[8]; 56 DAA,100%
same,XANST Obs,[9],40%
same,THLAR Obs,[10]; 16 DAA,95%
same,THLAR Obs,[10]; 31 DAA,100%
same,AMBEL Obs,[11]; 19 DAA,83%
same,AMBEL Obs,[11]; 29 DAA,98%
same,AMBEL Obs,[11]; 56 DAA,100%
same,AMARE Obs,[12]; 28 DAA,100
same,AMARE Obs,[12]; 56 DAA,93
same,AMBEL Obs,[13]; 16 DAA,45%
same,AMBEL Obs,[13]; 31 DAA,30%
same,DIGHO Obs,[14]; [15],60
same,DIGHO Obs,[14]; [16],40
same,DIGHO Obs,[14]; [17],20
same,DIGHO Obs,[14]; [18],0
same,DIGHO Obs,[14]; [19],0
"Nc1nc(C2CC2)nc(C(=O)O)c1Cl [Compound 1, 6-amino-5-chloro-2-cyclopropyl-4-pyrimidinecarboxylic acid]",BRADC Obs,[3]; [20],20
same,BRADC Obs,[3]; [21],40
same,BRADC Obs,[3]; [22],20
same,BRADC Obs,[3]; [23],50
same,BRADC Obs,[3]; [24],0
same,BRADC Obs,[3]; [25],40
same,BRADC Obs,[3]; [26],0
same,BRADC Obs,[3]; [27],0
same,BRADC Obs,[3]; [28],0
same,BRADC Obs,[3]; [29],0
same,DIGHO Obs,[14]; [20],0
same,DIGHO Obs,[14]; [21],0
same,DIGHO Obs,[14]; [22],0
same,DIGHO Obs,[14]; [23],20
same,DIGHO Obs,[14]; [24],0
same,DIGHO Obs,[14]; [25],20
same,DIGHO Obs,[14]; [26],0
same,DIGHO Obs,[14]; [27],0
same,DIGHO Obs,[14]; [28],0
same,DIGHO Obs,[14]; [29],0
O=C(O)CNCP(=O)(O)O [Glyphosate],DIGSA Obs,[2]; 16 DAA,98%
same,DIGSA Obs,[2]; 31 DAA,95%
same,POLPY Obs,[6]; 14 DAA,84%
same,POLPY Obs,[6]; 28 DAA,91%
same,SETLU Obs,[7]; 16 DAA,100%
same,SETLU Obs,[7]; 31 DAA,98%
same,THLAR Obs,[10]; 16 DAA,98%
same,THLAR Obs,[10]; 31 DAA,100%
same,AMBEL Obs,[13]; 16 DAA,84%
same,AMBEL Obs,[13]; 31 DAA,100%
"CCc1cccc(C)c1N(C(=O)CCl)[C@@H](C)COC [S-Metolachlor, S-metolachlor, reference compound]",ZEAMD Obs,[1]; 28 DAA,0
same,ZEAMD Obs,[1]; 56 DAA,0
same,DATST Obs,[4]; 19 DAA,40%
same,DATST Obs,[4]; 29 DAA,38%
same,DATST Obs,[4]; 56 DAA,52%
same,SETFA Obs,[5]; 19 DAA,93%
same,SETFA Obs,[5]; 29 DAA,100%
same,SETFA Obs,[5]; 56 DAA,94%
same,CHEAL Obs,[8]; 19 DAA,45%
same,CHEAL Obs,[8]; 56 DAA,23%
same,XANST Obs,[9],30%
same,AMBEL Obs,[11]; 19 DAA,32%
same,AMBEL Obs,[11]; 29 DAA,23%
same,AMBEL Obs,[11]; 56 DAA,23%
same,AMARE Obs,[12]; 28 DAA,100
same,AMARE Obs,[12]; 56 DAA,80
